Measurements as given in patent US8883203B2, “Solid oral dosage form containing an enhancer” (Merrion Research III Limited, priority 2006, dated 2014).
Each block holds one compound with its values, some of them ahead of it.

How the values were obtained:
[1] = cited from earlier work
[2] = Closed loop rat model, intraduodenal TRH with enhancer, serum TRH; type: in vivo, Male Wistar rats; conditions: 500 μg or 1000 μg TRH with 35 mg enhancer, interduodenal bolus
Experimental: Male Wistar rats (weight range 250 g-350 g) were anaesthetized with ketamine hydrochloride/acepromazine. […] All intraduodenal dose volumes (for samples and control) were 1 ml/kg. The proximal end of the segment was ligated and the loop was sprayed with isotonic saline (37° C.) to provide moisture and then replaced in the abdominal cavity avoiding distension. The incision was closed with surgical clips. A group of animals were administered TRH in PBS (100 μg in 0.2 ml) by subcutaneous injection as a reference.

Caco-2 monolayers = test: TEER of Caco-2 monolayers with MCFA sodium salts; type: cell-based; conditions: sodium salts with 3H-TRH, over 2 hours, concentrations of Table 1
Experimental: Cell Culture: Caco-2 cells were cultured in Dulbecco's Modified Eagles Medium (DMEM) 4.5 g/L glucose supplemented with 1% (v/v) non-essential amino acids; 10% fetal calf serum and 1% penicillin/streptomycin. […] The cells were grown and expanded in standard tissue culture flasks and were passaged once they attained 100% confluence. The Caco-2 cells were then seeded on polycarbonate filter inserts (Costar; 12 mm diameter, 0.4 μm pore size) at a density of 5×10^5 cells/cm^2 and incubated in six well culture plates with a medium change every second day. Confluent monolayers between day 20 and day 30 seeding on filters and at passages 30-40 were used throughout these studies.
The transport experiments were performed in Hank's Balanced Salt Solution (HBSS) containing 25 mM N[2-hydroxyethyl]-piperazine-N′-[2-ethanesulfonic acid] (HEPES) buffer, pH 7.4 at 37° C. Due to variations in solubilities, various concentrations of the different MCFA sodium salts and various apical buffers were used as shown in Table 1. In all cases the basolateral chamber contained regular HBSS+HEPES.
After removing the cell culture medium, the monolayers were placed in wells containing prewarmed HBSS (37° C.); 1 ml apically and 2 ml basolaterally. Monolayers were incubated at 37° C. for 30 mins. Then at time zero, apical HBSS was replaced with the relevant apical test solution containing the radiolabelled compounds with and without the enhancer compound. […] The plates were placed on an orbital shaker in an incubator (37° C.). Transport across the monolayers was followed by basolateral sampling (1 ml) at 30 min. intervals up to 120 mins. At each 30 min. interval each insert was transferred to a new well containing 2 ml fresh prewarmed HBSS. Apical stock radioactivity was determined by taking 10 μl samples at t=0 and t=120 mins. […] Mean values for ^3H-TRH concentrations were calculated for the apical and basolateral solutions at each time point.

APTT = test: Closed-loop rat segment, intraileal USP heparin with enhancer, APTT response; type: in vivo; conditions: USP heparin 1000 IU, enhancer 10 and 35 mg
Source text: APTT measurements were taken at various time points.

anti-factor Xa activity [3] = test: Closed-loop rat segment, intraileal USP heparin with enhancer, anti-factor Xa response; conditions: USP heparin 1000 IU
Experimental: The procedure carried out in Example 1(a) above was repeated using USP heparin in place of TRH and dosing intraileally rather than intraduodenally. A mid-line incision was made in the abdomen and the distal end of the ileum located (about 10 cm proximal to the ileo-caecal junction). 7-9 cm of tissue was isolated and the distal end ligated, taking care to avoid damage to surrounding blood vessels. Heparin absorption as indicated by […] (APTT) response was measured by placing a drop of whole blood (freshly sampled from the tail artery) on the test cartridge of Biotrack 512 coagulation monitor. APTT measurements were taken at various time points.
Citrated blood samples were centrifuged at 3000 rpm for 15 mins. to obtain plasma for anti-factor Xa analysis. […] The control in each case is a solution of the same heparin concentration containing no enhancer.

anti-factor Xa activity [4] = test: Intraduodenal LMWH with enhancers in rats (open loop), anti-factor Xa; type: in vivo, Male Wistar rats; conditions: 1000 IU parnaparin sodium intraduodenally
anti-factor Xa activity [5] = test: Site of administration of LMWH with sodium caprate in dogs, anti-factor Xa; type: in vivo, beagle dogs; conditions: 45,000 IU LMWH and 0.55 g sodium caprate, oral, intrajejunal, intracolonic
Source text: Four beagle dogs (10-15 Kg) were surgically fitted with catheters to the jejunum and colon respectively. […] 3,200 IU Fluxum™ SC was included in the study as a subcutaneous reference.

Compound: NCCCC(O)(P(=O)(O)O)P(=O)(O)O [alendronate, Alendronate monosodium trihydrate]
further share of the dose absorbed excreted in the urine ([1]; over the next 64 hours): 5% | share of the dose absorbed excreted in the urine ([1]; within 8 hours, oral conventional forms): 40%

serum levels of TRH over the control TRH solution [2]: significantly increases
Compound: CCCCCCCC(=O)[O-].[Na+] [NaC8, sodium caprylate]

Compound: CCCCCCCCCCCCCCCCCC(=O)[O-].[Na+] [Batch C18]
effect on TEER (Ωcm^2) compared to the control (Caco-2 monolayers): minimal reduction in TEER

Compound: CCCCCCCCCC(=O)[O-].[Na+] [NaC10, sodium caprate]
serum levels of TRH over the control TRH solution [2]: significantly increases | heparin absorption by APTT response compared to control heparin solution (APTT): significant increase in absorption | anti-factor Xa activity relative to control heparin solution (anti-factor Xa activity [3]; enhancer 10 mg): significant increase in anti-factor Xa activity | anti-factor Xa activity relative to control heparin solution (anti-factor Xa activity [3]; enhancer 35 mg): significant increase in anti-factor Xa activity | effect on TEER (Ωcm^2) compared to the control (Caco-2 monolayers): minimal reduction in TEER

Compound: CCCCCCCCCCCC(=O)[O-].[Na+] [Batch C12, sodium laurate]
effect on TEER (Ωcm^2) compared to the control (Caco-2 monolayers): some cell damage (reduction in TEER)

systemic delivery of LMWH in the absence of enhancer (anti-factor Xa activity [4]): relatively poor | intestinal absorption of LMWH versus absorption from the stomach (anti-factor Xa activity [5]): considerably higher
Compound: parnaparin sodium [LMWH]

Compound: CCCCCCCCCCCCCC(=O)[O-].[Na+] [Batch C14]
effect on TEER (Ωcm^2) compared to the control (Caco-2 monolayers): minimal reduction in TEER
